From US7119229B2 (priority 2001, dated 2006)

What was measured:
Assay type in all cases: cell-based
[1] = system: BALB/c mouse spleen cells, T cells activated with concanvalin A (ConA); test: Immunosuppressive effect test using BALB/c mouse spleen cells, ConA (T cells); conditions: 2 μg/ml of ConA, 72 hours, MTS, FIGS. 2 and 3
Method: (§1) This test was carried out to determine the immunosuppressive effect of an immunosuppressive candidate material by checking anti-proliferation of T cells and B cells. To identify the proliferation inhibitory extent, responding cells (BALB/c mouse spleen cells) were treated with an immunosuppressive candidate material, lipopolysaccharide (LPS) as a B cell activator and concanvalin A (ConA) as a T cell activator. It is known that the responding cells treated with LPS induce proliferation of B cells and those treated with ConA induce proliferation of T cells.
(§2) Responding cells (BALB/c mouse spleen cells) were seeded into each well of 96-well plates at a concentration of 2×10^5 cells/well. […] After culturing for 72 hours at a CO2 incubator, a 20 μl MTS solution was added to each well, followed by further culturing for 2 to 4 hours and measuring OD at 490 nm using ELISA.

[2] = system: MES-SA/DX5 (adriamycin resistant cell strain); test: SRB cytotoxicity assay, MES-SA/DX5; conditions: Homo sapiens, MES-SA/Dx5, 72 h, read-out: ED50 MES-SA/DX5
Method: (§3) Human tumor cells, including MCF-7 (human breast adenomatous tumor), MCF-7/DOX (adriamycin resistant cell strain), MRS-SA (human uterine sarcoma), MES-SA/DX5 (adriamycin resistant cell strain), A 549 (human non-small cell lung), SKOV-3 (human ovarian), SKMEL-2 (human melanoma), XF-498 (human CNS), HCT-15 (human colon) were incubated at 37° C. in the presence of 5% CO2 using a DMEM culture medium. The respective cells were seeded into each well of 96-well plates at a concentration of 2×10^3˜5×10^3 cells/well. […] Each cell line of the resultant plates was fixed with trichloroacetic acid (TCA), stained with 0.4% SRB solution and rinsed with 1% acetic acid. Thereafter, the dye was dissolved in 10 mM Tris base to measure the optical density (OD) at 520 nm.

HCT-15 (human colon) = test: SRB cytotoxicity assay, HCT15; conditions: HCT-15, 72 h, read-out: ED50 HCT15
Method: as §3

[3] = system: A 549 (human non-small cell lung); test: SRB cytotoxicity assay, A549; conditions: A549, 72 h, read-out: ED50 A549
Method: as §3

[4] = system: BALB/c mouse spleen cell (responding) and DBA/2 mouse spleen cell (stimulating)
Method: MLR tests were carried out to determine the immunosuppressive effect of an immunosuppressive candidate material. When a responding cell (BALB/c mouse spleen cell) and a stimulating cell (DBA/2 mouse spleen cell) were cultured separately, the cells grew little. On the contrary, when the cells were simultaneously cultured, the cells were proliferated due to induction of an antigen-antibody reaction. The proliferated cells were treated with the immunosuppressive candidate material for measurement of the proliferation inhibitory extent.
After culturing for 72 hours at a CO2 incubator, a 20 μl MTS solution was added to each well, followed by further culturing for 2 to 4 hours and measuring OD at […] by using ELISA.

SKOV-3 (human ovarian) = test: SRB cytotoxicity assay, SK-OV-3; conditions: 72 hours, read-out: ED50 SK-OV-3
Method: as §3

[5] = system: MCF-7 (human breast adenomatous tumor); test: SRB cytotoxicity assay, MCF7; conditions: MCF7, 72 h, read-out: ED50 MCF7
Method: as §3

[6] = system: BALB/c mouse spleen cells, B cells activated with lipopolysaccharide (LPS); test: Immunosuppressive effect test using BALB/c mouse spleen cells, LPS (B cells); conditions: 20 μg/ml lipopolysaccharide, 72 hours, MTS, FIGS. 2 and 3
Method: as §1, §2

SKMEL-2 (human melanoma) = test: SRB cytotoxicity assay, SK-MEL-2; conditions: SK-MEL-2, 72 h, read-out: ED50 SK-MEL-2
Method: as §3

XF-498 (human CNS) = test: SRB cytotoxicity assay, XF498; conditions: 72 hours, read-out: ED50 XF498
Method: as §3

[7] = system: MCF-7/DOX (adriamycin resistant cell strain); test: SRB cytotoxicity assay, MCF-7/DOX; conditions: Homo sapiens, MCF7-DOX, 72 h, read-out: ED50 MCF-7/DOX
Method: as §3

[8] = system: MES-SA (human uterine sarcoma); test: SRB cytotoxicity assay, MES-SA; conditions: 72 h, read-out: ED50 MES-SA
Method: as §3

`COc1cc2c(c(OC)c1OC)-c1ccc(SC)c(=O)cc1[C@@H](NC(=O)c1cccc(CO[N+](=O)[O-])c1)CC2` [Compound 12] was tested, and the “anti-proliferation of T cells” value [1] was “remarkable anti-proliferous effect”, the EC50 [2] was 115 nM and the EC50 (HCT-15 (human colon)) was 0.1 nM. The EC50 [3] was 0.1 nM, the immunosuppressive effect [4] was “good immunosuppressive effect” and the EC50 (SKOV-3 (human ovarian)) was 0.3 nM. For the same molecule, the EC50 [5] was 0.02 nM, the “anti-proliferation of B cells” value [6] was “remarkable anti-proliferous effect” and the EC50 (SKMEL-2 (human melanoma)) was 0.1 nM. It also gave an EC50 (XF-498 (human CNS)) of 0.2 nM, an EC50 [7] of 28 nM and an EC50 [8] of 0.01 nM.
